From patent US4812462A, “4,5,6,7-tetrahydro-1H-imidazo[4,5-c]pyridine-6-carboxylic acid analogs having antihypertensive activity” (Warner-Lambert Company, priority 1986, dated 1989)
Structures can show the parent of a compound that is named as a salt.

How the values were obtained:
[1] = target: angiotensin II binding to rat adrenal receptor preparations; assay: inhibition of 125I-angiotensin II binding to rat adrenal receptor preparations
[2] = system: 2 kidney, 1-clip Goldblatt hypertensive rat (RHR); assay: blood pressure lowering in conscious 2 kidney, 1-clip Goldblatt (renal) hypertensive rats (RHR), AHP3; assay type: in vivo; conditions: 30 mg/kg ip, read-out: Max % decrease in blood pressure, 30 mg/kg ip in RHR
Method: (§1) Thus, for example, compounds of formula I when administered intraperitoneally or orally to 2 kidney, 1-clip Goldblatt (renal) hypertensive rats (See S Sen, et al., "Role of Renin-Angiotensin System in Chronic Renal Hypertensive Rats," Hypertension 1:427-434 (1979) and Clin. Soc. 57:53-62, 1979, "Antihypertensive Effect of Prolonged Blockade of Angiotensin Formation in Benign and Malignant, one-and two-kidney Goldblatt Hypertensive Rats".) at doses in the range of 1-100 mg/kg cause 10-80 mmHg drops in blood pressure. […] Angiotensin binding inhibition activity and blood pressure lowering activity in renal hypertensive rats of the optimally substituted examples of formula I are listed in Table 1. Blood pressure lowering activity in spontaneously hypertensive rats of optimally substituted examples of formula II are listed in Table 2.
(§2) […] EVALUATION (AHP3)
(§3) A Method for the Direct Monitoring of Aortic Blood Pressure and Heart Rate from Conscious Rats
(§4) The continuous monitoring of pulsatile blood pressure (BP) from unrestrained conscious rats surgically equipped with polyethylene cannulas was accomplished by means of a computer assisted data capture scheme (CADCS). The basic elements of the methodology are the cannulation procedure and the CADCS.
(§5) Rats were anesthetized with Telazol (1:1 tiletamine HCl and zolazepam HCl); 20-40 mg/kg IM and the descending aorta exposed via a midline incision. Cannulas fabricated from polyethylene tubing were inserted into the aorta via an undersized puncture hole below the renal arteries. The puncture hole was made by a 23 G disposable needle with a section of the aorta clamped off above and below the puncture site. The cannulas, consisting of a PE100 (0.86 mm ID) body and a PE50 (0.58 mm ID) tip, were attached to a trocar, inserted through the psoas muscle, and passed subcutaneously along the midline of the back and externalized between the ears. The cannulas were anchored to the psoas muscle and between the scalulae (3-0 green braided suture). The midline incision was closed in two steps (muscle first, skin second) using continuous over-and-over sutures (4-0 chronic). Each rat was then given penicillin 30,000 units subcutaneously (Penicillin G Procaine Sterile Suspension).
(§6) The rats were fitted with a harness-springswivel assembly designed to protect the cannula and to provide the rat relative freedom of movement. The harnesses were fabricated from nylon hook and loop tape cemented to a metal plate to which spring wires (18-8 stainless steel), were attached to brass swivels. Each polyethylene cannula was channeled through a spring and connected through a swivel to a pressure transducer (Model P23Gb; Statham Instruments; Hato Rey, Puerto Rico) and an infusion pump (Sage model 234-7; Orion Research, Cambridge, Mass.) by means of PE100 tubing. While on test, each rat received a continuous slow infusion of heparinized saline solution (approximately 0.40 ml or 40 units of heparin per 24 hr period) to prevent clot formation. Additional "flushes" of the cannula with heparinized saline were carried out when the aortic pulse pressure (systolic minus diastolic) was less than 25 mm Hg.
(§7) The pulsatile blood pressure of each of 32 rats was monitored continuously by two signal conditioning units (Gould, Clev., Ohio). The signals from these units were monitored and digital data for mean, systolic, and diastolic blood pressures as well as for heart rate were calculated every 5 min by two in-laboratory computers (Hewlett Packard, Cupertino, Calif.). These in-laboratory computers have the capacity to store 32 days of this 5 min data. Communication with the mainframe research computer (IBM 3083) from the two inlaboratory computers allowed for data analysis and report generation. […]

[3] = system: spontaneously hypertensive rat (SHR); assay: blood pressure lowering in conscious spontaneously hypertensive rats (SHR), AHP3; assay type: in vivo; conditions: 30 mg/kg PO, read-out: Max % decrease in blood pressure, 30 mg/kg PO in SHR
Method: as §1, §2, §3, §4, §5, §6, §7

SMILES	IC50 [1] [µM]	change in vivo at 30 mg/kg [2] [%]	change in vivo at 30 mg/kg [3] [%]
O=C(O)C1Cc2c(ncn2Cc2ccccc2)CN1C(=O)C1c2ccccc2-c2ccccc21 (single isomer, unassigned) [Example 29, 1H-Imidazo[4,5-c]pyridine-6-carboxylic acid, 5-[(9H-fluoren-9-yl)carbonyl]-4,5,6,7-tetrahydro-1-(phenylmethyl)-, (+)-]	8	–	–
O=C(O)C1Cc2c(ncn2CCC23CC4CC(CC(C4)C2)C3)CN1C(=O)C(c1ccccc1)c1ccccc1 (stereo not drawn) [Example 2, 1-(2-(1-Adamantyl)ethyl)-5-diphenylacetyl-4,5,6,7-tetrahydro-1H-imidazo[4,5-c]pyridine-6-carboxylic acid]	0.1	-26	–
O=C(O)C1Cc2c(ncn2CCC2CCCCC2)CN1C(=O)C(c1ccccc1)c1ccccc1 (stereo not drawn) [Example 4, 1-(2-Cyclohexylethyl)-5-diphenylacetyl-4,5,6,7-tetrahydro-1H-imidazo[4,5-c]pyridine-6-carboxylic acid]	0.24	-13	–
O=C(O)C1Cc2c(ncn2CCc2ccccc2)CN1C(=O)Cc1ccccc1 (stereo not drawn) [Example 6, 1-(2-Phenylethyl)-5-phenylacetyl-4,5,6,7-tetrahydro-1H-imidazo[4,5-c]pyridine-6-carboxylic acid]	2.4	-16	–
O=C(O)C1Cc2c(ncn2Cc2ccccc2O)CN1C(=O)C(c1ccccc1)c1ccccc1 (stereo not drawn) [Example 17, 1-(2-Hydroxyphenyl)methyl-5-diphenylacetyl-4,5,6,7-tetrahydro-1H-imidazo[4,5-c]pyridine-6-carboxylic acid]	0.69	-21	–
COc1ccc(Cn2cnc3c2CC(C(=O)O)N(C(=O)C(c2ccccc2)c2ccccc2)C3)cc1C (stereo not drawn) [Example 19, 1-(3-Methyl-4-methoxyphenyl)methyl-5-diphenylacetyl-4,5,6,7-tetrahydro-1H-imidazo[4,5-c]-pyridine-6-carboxylic acid]	0.07	-14	–
O=C(O)C1Cc2c(ncn2Cc2ccc(C(F)(F)F)cc2)CN1C(=O)C(c1ccccc1)c1ccccc1 (stereo not drawn) [Example 21, 1-(4-Trifluoromethylphenyl)methyl-5-diphenylacetyl-4,5,6,7 tetrahydro-1H-imidazo[4,5-c]pyridine-6-carboxylic acid]	0.19	-18	–
O=C(O)[C@@H]1Cc2c(ncn2Cc2ccccc2)CN1C(=O)C(c1ccc(Cl)cc1)c1ccc(Cl)cc1 [Example 22, (S)-5-[bis(4-chlorophenyl)acetyl]-4,5,6,7-tetrahydro-1-(phenylmethyl)-1H-imidazo[4,5-c]pyridine-6-carboxylic acid]	6.8	-27	–
O=C(O)[C@@H]1Cc2c(ncn2Cc2ccccc2)CN1C(=O)C(c1ccc(F)cc1)c1ccc(F)cc1 [Example 23, (S)-5-[bis(4-fluorophenyl)acetyl]-4,5,6,7-tetrahydro-1-(phenylmethyl)-1H-imidazo[4,5-c]pyridine-6-carboxylic acid]	2.1	-22	–
COc1ccc(Cn2cnc3c2C[C@@H](C(=O)O)N(C(=O)C(c2ccccc2)C2CCCC2)C3)cc1C (stereo partly drawn) [Example 24, (S)-5-(cyclopentylphenylacetyl)-4,5,6,7-tetrahydro-1-[(4-methoxy-3-methylphenyl)methyl]-1H-imidazo-[4,5-c]pyridine-6-carboxylic acid]	0.07	-16	–
CC(C)N1C(=O)C2Cc3[nH]cnc3CN2C1=S (stereo not drawn) [Example 162, 1,4,6,7,8a,9-Hexahydro-7-(1-methylethyl)-6-thioxo-8H-diimidazo-(1,5-a:4',5'-d]pyridine-8-one]	–	–	-39
COc1ccc(N2C(=O)C3Cc4c(ncn4Cc4ccc([N+](=O)[O-])c(C)c4)CN3C2=O)cc1 (stereo not drawn) [Example 273, 1H-Diimidazo[1,5-c:4',5'-d]pyridine-6,8(4H,7H)-dione, 8a,9-dihydro-7-(4-methoxyphenyl)-1-[(3-methyl-4nitrophenyl)methyl], monohydrochloride]	–	–	-14
